Experimental data taken from US9388193B2, “Dipicolylamine derivatives and their pharmaceutical uses” (National Health Research Institutes, priority 2014, dated 2016).

Legend:
[1] = tested on: MiaPaca2 cells; experiment: Cell viability MTS assay, MiaPaca2; assay type: cell-based; conditions: Homo sapiens, MIA PaCa-2, 72 hours incubation
Procedure: (§1) SCM-1, MiaPaca2 and Colo205 cells were grown in RPMI 1640 (Roswell Park Memorial Institute) medium (RPMI; Gibco), supplemented with 10% fetal bovine serum (FBS; Gibco). Detroit551 cells were grown in Dulbecco's modified Eagle's medium (DMEM) supplemented with 10% FBS 50 U/mL of penicillin and streptomycin, and 1% Nonessential amino acids (NEAA; Gibco).
(§2) Zn-DPA conjugates, Zn-DPA-(8), Zn-DPA-(12), Zn-DPA-(25), Zn-DPA-(26), and Zn-DPA-(42) prepared from the corresponding compounds 8, 12, 25, 26, and 42, respectively, were used to inhibit the growth of human cancer cells (SCM-1, Colo205, MiaPaca2) and human embryonic skin fibroblast cells Detroit551 following the procedures described below.
(§3) Cell viability was examined by the MTS assay (Promega, Madison, Wis., USA). More specifically, cells were grown (2500˜3000 cells/well) in a flat bottomed 96-well plate for 24 hours. A medium was added along with a test compound at a pre-determined concentration. The cells were further incubated for 72 hours. At the end of the incubation, the medium was removed and […] with 100 μl of a 3-(4,5-dimethylthiazol-2-yl)-5-(3-carboxymethoxyphenyl)-2-(4-sulfophenyl)-2H-tetrazolium/phenazine methosulfate mixture. The cells were again incubated for 1.5 hours at 37° C. in a humidified incubator with 5% CO2 to allow viable cells to convert the tetrazolium salt into formazan. The conversion was determined by measuring the absorbance at 490 nm using a BioTek PowerWave-X Absorbance Microplate Reader.
(§4) The data obtained were normalized using a vehicle (dimethyl sulfoxide, DMSO)-treated control (100% viability) and a background control (0% viability) to verify growth inhibition. The IC50 value is defined as the concentration of a compound that induces a 50% reduction in cell viability in comparison with a vehicle-treated control. These values were calculated using GraphPad Prism version 4 software (San Diego, Calif., USA).

[2] = tested on: Colo205 cells; experiment: Cell viability MTS assay, Colo205; assay type: cell-based; conditions: Homo sapiens, COLO 205, 72 hours incubation
Procedure: as §1, §2, §3, §4

[3] = tested on: Colo205 tumors; experiment: In vivo antitumor assay, Colo205 tumor xenograft mouse model; set-up: species or system nude mice; conditions: compared to SN-38 at 10 mg/kg and CPT-11 at 40 mg/kg
Procedure: (§5) Two Zn-DPA conjugates, Zn-DPA-(26) and Zn-DPA-(42) were subjected to an in vivo antitumor assay against Colo205 or MiaPaca2 tumors growing in nude mice following the procedure described below.
(§6) More specifically, Colo205 or MiaPaca2 cells were cultured and maintained in a flask with a RPMI-1640 medium, which was supplemented with 10% FBS. The cells were harvested and innoculated (1×10^6 cells) subcutaneously into the left flank of a adult male nude mouse. Tumor-bearing mice were grouped at the mean tumor volume of approximately 200 mm^3. Tumor dimensions were measured with a digital caliper, and the tumor volume in mm^3 was calculated by the formula: Volume=(length×width^^2)/2.
(§7) The mice were housed in sterilized cages equipped with an air filter and sterile bedding materials at the Laboratory Animal Center of National Health Research Institutes. All mice were fed with sterilized water and chow at libitum under 12-hour light/12-hour dark cycle throughout the study.
(§8) Several dosages of Zn-DPA-(26) and Zn-DPA-(42), were used in this assay, i.e., 40 mg/kg, 20 mg/kg, and 10 mg/kg, p<0.05 vs. vehicle control by one-way ANOVA analysis and the Newman-Keuls multiple comparison test. […]

[4] = tested on: human embryonic skin fibroblast Detroit 551; experiment: Cell viability MTS assay, Detroit 551; assay type: cell-based; conditions: 72 hours incubation
Procedure: as §1, §2, §3, §4

[5] = assay type: in vitro ADME; conditions: mouse, plasma; for Stability (percentage remaining), time = 0: 0 h
Procedure: Plasma Stability of Zn-DPA Conjugates
Zn-DPA conjugates, Zn-DPA-(8), Zn-DPA-(12), Zn-DPA-(25), Zn-DPA-(26), and Zn-DPA-(42) prepared from the corresponding compounds 8, 12, 25, 26, and 42, respectively, were incubated in mouse plasma at 37° C. for up to 24 hours to assess the stability of these conjugates.
A sample was analyzed with a High Performance Liquid Chromatography system to determine the concentration of a test conjugate at one of four time points (i.e., 0, 3 hours, 6 hours, and 24 hours). The percentages of the test conjugate remaining at 3, 6, and 24 hours after incubation in the plasma were determined. A higher percentage indicates greater stability.

[6] = tested on: SCM-1 cells; experiment: Cell viability MTS assay, SCM-1; assay type: cell-based; conditions: Homo sapiens, 72 hours incubation
Procedure: as §1, §2, §3, §4

[7] = tested on: MiaPaca2 tumors; experiment: In vivo antitumor assay, MiaPaca2 tumor xenograft mouse model; set-up: species or system nude mice; conditions: i.v., 40, 20 and 10 mg/kg, compared to SN-38 at 10 mg/kg and CPT-11 at 40 mg/kg
Procedure: as §5, §6, §7, §8

Q: Which IC50 [1] does the source give for CCc1c2c(nc3ccc(OC(=O)c4ccc(CN(CCCCOc5cc(CN(Cc6ccccn6)Cc6ccccn6)cc(CN(Cc6ccccn6)Cc6ccccn6)c5)C(=O)C5(c6ccc(Cl)cc6)CCCCC5)cc4)cc13)-c1cc3c(c(=O)n1C2)COC(=O)[C@]3(O)CC [Zn-DPA-(26)] here?
A: The IC50 was 120 nM.

Q: What about the IC50 [2] of the same molecule?
A: The IC50 was 1100 nM.

Q: And the antitumor activity ([3]; i.v., dosages of 10 mg/kg and 40 mg/kg)?
A: The antitumor activity was “much higher antitumor activities”.

Q: And the IC50 [4]?
A: The IC50 was greater than 10 µM.

Q: And the “Stability (percentage remaining), time = 0” value [5]?
A: The value was 100%.

Q: And the “Stability (percentage remaining), time = 3 hr” value [5]?
A: Its value is 99%.

Q: And the “Stability (percentage remaining), time = 6 hr” value [5]?
A: The value was 97%.

Q: And the IC50 [6]?
A: Its IC50 is 2600 nM.

Q: With CCc1c2c(nc3ccc(OC(=O)CCSC4CC(=O)N(Cc5ccc(C(=O)NCCCCOc6cc(CN(Cc7ccccn7)Cc7ccccn7)cc(CN(Cc7ccccn7)Cc7ccccn7)c6)cc5)C4=O)cc13)-c1cc3c(c(=O)n1C2)COC(=O)[C@]3(O)CC (stereo partly drawn) [Zn-DPA-(12)] as the molecule, how does the IC50 [2] read?
A: Its IC50 is 120 nM.

Q: What about the IC50 [4] of the same molecule?
A: Its IC50 is 2.9 µM.

Q: What about the “Stability (percentage remaining), time = 0” value [5] of the same molecule?
A: The value was 100%.

Q: And the “Stability (percentage remaining), time = 3 hr” value [5]?
A: Its value is 84%.

Q: And the “Stability (percentage remaining), time = 6 hr” value [5]?
A: Its value is 76%.

Q: And the IC50 [6]?
A: The IC50 was 940 nM.

Q: Which IC50 [1] does the source give for CCc1c2c(nc3ccc(OC(=O)N4CCC(N5CCCCC5)CC4)cc13)-c1cc3c(c(=O)n1C2)COC(=O)[C@]3(O)CC [CPT-11, reference compound] here?
A: Its IC50 is 3600 nM.

Q: And the IC50 [2]?
A: The IC50 was greater than 10000 nM.

Q: And the IC50 [4]?
A: The IC50 was greater than 10 µM.

Q: And the IC50 [6]?
A: Its IC50 is greater than 10000 nM.

Q: For CCc1c2c(nc3ccc(O)cc13)-c1cc3c(c(=O)n1C2)COC(=O)[C@]3(O)CC [SN-38, reference compound], which IC50 [1] is on record?
A: The IC50 was 20 nM.

Q: And the IC50 [2]?
A: The IC50 was 140 nM.

Q: And the IC50 [4]?
A: The IC50 was 4 µM.

Q: What about the IC50 [6] of the same molecule?
A: Its IC50 is 640 nM.

Q: Which IC50 [2] does the source give for CCc1c2c(nc3ccc(OC(=O)c4cccc(NC(=O)NCCCCOc5cc(CN(Cc6ccccn6)Cc6ccccn6)cc(CN(Cc6ccccn6)Cc6ccccn6)c5)c4)cc13)-c1cc3c(c(=O)n1C2)COC(=O)[C@@]3(O)CC [Zn-DPA-(8)] here?
A: Its IC50 is 420 nM.

Q: And the IC50 [4]?
A: Its IC50 is 9.3 µM.

Q: What about the “Stability (percentage remaining), time = 0” value [5] of the same molecule?
A: The value was 100%.

Q: And the “Stability (percentage remaining), time = 3 hr” value [5]?
A: The value was 90%.

Q: And the “Stability (percentage remaining), time = 6 hr” value [5]?
A: The value was 82%.

Q: What about the IC50 [6] of the same molecule?
A: Its IC50 is 640 nM.

Q: With CCc1c2c(nc3ccc(OC(=O)c4ccc(CN(CCOCCOCCNC(=O)c5ccc(CN(CCCCOc6cc(CN(Cc7ccccn7)Cc7ccccn7)cc(CN(Cc7ccccn7)Cc7ccccn7)c6)C(=O)C6(c7ccc(Cl)cc7)CCCCC6)cc5)C(=O)C5(c6ccc(Cl)cc6)CCCCC5)cc4)cc13)-c1cc3c(c(=O)n1C2)COC(=O)[C@]3(O)CC [Zn-DPA-(42)] as the molecule, how does the IC50 [1] read?
A: Its IC50 is 550 nM.

Q: And the IC50 [2]?
A: Its IC50 is 3700 nM.

Q: And the antitumor activity ([3]; i.v., 40, 20 and 10 mg/kg)?
A: The antitumor activity was “antitumor activities in a dose-dependent manner and much higher antitumor activities”.

Q: What about the antitumor activity [7] of the same molecule?
A: The antitumor activity was “antitumor activities in a dose-dependent manner and much higher antitumor activities”.

Q: What about the IC50 [4] of the same molecule?
A: Its IC50 is greater than 10 µM.

Q: What about the “Stability (percentage remaining), time = 0” value [5] of the same molecule?
A: Its value is 100%.

Q: What about the “Stability (percentage remaining), time = 3 hr” value [5] of the same molecule?
A: Its value is 99%.

Q: What about the “Stability (percentage remaining), time = 6 hr” value [5] of the same molecule?
A: Its value is 98%.

Q: Which results are given for CCc1c2c(nc3ccc(OC(=O)c4ccc(CN(CCCCOc5cc(CN(Cc6ccccn6)Cc6ccccn6)cc(CN(Cc6ccccn6)Cc6ccccn6)c5)C(=O)c5c(-c6ccccc6Cl)noc5C)cc4)cc13)-c1cc3c(c(=O)n1C2)COC(=O)[C@]3(O)CC [Zn-DPA-(25)]?
A: IC50 [2]: 580 nM; IC50 [4]: 7.2 µM; Stability (percentage remaining), time = 0 [5]: 100%; Stability (percentage remaining), time = 3 hr [5]: 90%; Stability (percentage remaining), time = 6 hr [5]: 85%; IC50 [6]: 1000 nM
